From patent publication US20250195474A1, “Piezo Inhibition for Wound Healing” (priority 2022, published 2025)
No end group written: not given here.

Assays:
human adipocytes = assay: Calcium imaging of hydrogel-bound adipocytes (Fluo-4 AM); assay type: cell-based; conditions: stretched human adipocytes
Description: Calcium imaging was used to determine in vitro Ca^2+ flow in hydrogel-bound adipocytes with or without mechanical strain and with or without Piezo1 inhibitor treatment. A Fluo-4, AM cell permeant kit (ThermoFisher, Cat: F-14201) was used per the manufacturer's instructions. […] Imagej was used for image quantification.

mouse adipocytes = assay: Proliferation and apoptosis assays for treatment toxicity; assay type: cell-based; conditions: 0.5x, 1x, 2x standard concentration [500 nm], 7 days
Procedure: P1i and P2i treated adipocytes (and fibroblast controls) were examined for treatment toxicity using proliferation and apoptosis assays. […] Then, cells were treated with either 0.5×, 1×, or 2× the standard concentration of Piezo1 or Piezo2 inhibitors [500 nm]. After 7 days of treatment, cells were fixed or harvested for analysis of potential toxicity. For proliferation, EdU (5-ethynyl-2′-deoxyuridine) incorporation in vitro was investigated on differentiated adipocytes and undifferentiated fibroblasts using the Click-iT™ EdU Cell Proliferation Kit for Imaging, Alexa Fluor™ 488 dye (ThermoFisher, Cat: C10337). Proliferation was detected according to the manufacturer's guidelines. To evaluate apoptosis, the Annexin V Apoptosis Detection Kit-AF647 (Abcam, Cat: 219919) was used according to the manufacturer's guidelines.

existing scars [1] = assay: Treatment of existing scars during remodeling (scar rescue); assay type: in vivo, mouse
Description: While wound re-epithelialization is complete relatively quickly (around 2 weeks), wounds continue to heal beneath the surface for months to years in a process known as scar remodeling. (Foster et al., 2021; Gurtner et al., 2008) Remodeling is the longest and least well understood phase of wound repair but is likely critical to ultimate outcomes. We postulated that ADFs could continue to play a role in scarring during the remodeling process; if this were the case, we wondered whether ADF activity could be targeted during wound remodeling, via P1i in existing, actively remodeling scars, to ultimately reduce scarring and drive regeneration (FIG. 6A,C). Thus, we administered P1i to existing scars at POD 30 (early remodeling period), POD 75 (mid-remodeling), and POD 120 (late remodeling), then harvested tissue one month later at POD 60, POD 105, and […] respectively (FIG. 6A, C).

existing scars [2] = assay: CODEX spatial protein analysis of treated existing scars; assay type: in vivo, mouse
Description: To spatially phenotype the pig specimens, we used Co-Detection by Indexing (CODEX), a novel assay in which markers are labeled with oligonucleotide-conjugated antibodies and iteratively imaged between cyclic additions and washouts of dye-labeled oligonucleotides. A custom CODEX panel was designed to assess wound cells within the tissue see Table 1). In brief, primary antibodies were individually barcoded and validated using the commercial supplier's protocols. OCT for mouse or paraffin blocks for human xenograft (n=3 per group) were sectioned at 8 μm thickness onto coverslips for CODEX antibody staining. Antigens were retrieved by standard citrate-EDTA processing prior to addition of CODEX antibodies. Using a CODEX-integrated Keyence BZ-X instrument (Akoya Biosciences) image acquisition was then performed. Using software from Akoya Biosciences the raw images were process, with cell segmentation, and rendering.
The CODEX was visualized using Akoya Biosciences Multiplex Analysis Viewer (MAV) in ImageJ. The resulting .fcs files were then concatenated in FlowJo and imported into the Monocle3 and STvEA R packages for further analysis. After debris removal, the processed UMAP manifold was analyzed through Monocle3 with a post-manifold threshold of >10,000 cells per cluster. Analysis of the protein staining patterns was then used to assign cell types. The cell interactions were then inferred using STvEA for cell types at >2.5% of total abundance at k=20 nearest neighbors to quantify cell spatial interactions, and differential interaction maps were generated using graph scores.
To phenotype the spatial environment in the context of rescuing existing scars, CODEX was further employed to spatially define protein expression, cell populations, and associated cell-cell interactions (FIG. 10A; markers shown in Table 1 middle column, 39A). […]

[3] = system: human foreskin xenograft wounds; assay: Human foreskin xenograft wound model; assay type: in vivo; conditions: POD 14
Procedure: For the xenograft model, adult immunocompromised CD-1 nude mice were purchased from The Jackson Laboratory (Bar Harbor, ME). Mice were maintained at the Stanford University Research Animal Facility, SIM-1 Barrier Facility in accordance with Stanford University guidelines. All experiments were performed under an approved APLAC protocol (APLAC #11048). 3 mice were used for each group.
Discarded postnatal human foreskin samples were collected after circumcision at the Lucille Packard Children's Hospital at Stanford under a Stanford University Institutional Review Board (IRB) approved protocol (IRB #45219). Samples were not used if collected >8 hours after circumcision; samples were kept in Dulbecco's Modified Eagle Medium (ThermoFisher Scientific™, Waltham, MA) on ice until grafting. Foreskin was prepared by removal of all subcutaneous tissue, including muscle, and divided into 1 cm sections to be grafted.
Nude mice were induced and maintained with 2-4% isoflurane (Product: 502017, MWI Veterinary Supply Co.®; Boise, ID) at a rate of 2 L/min. While anesthetized, Betadine Surgical Scrub Veterinary (Avrio Health L.P.™, Stamford, CT) and sterile alcohol prep pads (FisherScientific™, Pittsburgh, PA) were used to prepare the dorsum. A 1.2 cm full-thickness excision of dorsal skin was created with forceps and sharp scissors. The foreskin graft was then placed into the full-thickness wound. […]

[4] = treated at POD 30, 75 or 120, harvested one month later

GsMTx4 (GCLEFWWKCNPNDDKCCRPKLKCSKLFKLCNFSF; ends and bridges not checked; cysteine pairing not given here; UniProt Q7YT39 47-80, looked up) [P1i]
calcium staining with stretching (human adipocytes): decreased | percentage of cells positive for EdU, annexin V or DAPI by FACS (mouse adipocytes): None of the markers' expression was significantly different | organization of hair follicles (existing scars [1]; POD 105 and 120 vs POD 60): less organized than those at POD 60 | ADFs in late treated wounds (existing scars [1]; late treatment of existing scars): significantly reduced | ECM architecture in existing scars (existing scars [1]; [4]): full recovery of unwounded-like ECM architecture | hair follicles in existing scars (existing scars [1]; [4]): return of hair follicles | wound regeneration in existing scars (existing scars [1]; [4]): near-complete wound regeneration | adipocyte cluster 2 interactions with epithelial cells (existing scars [2]; POD 60, 105 and 150): interacted more strongly with epithelial cells | expression of mechanical markers (existing scars [2]; POD 60, 105 and 150): PBS treated wounds showed higher expression of mechanical markers | interactions mediated by adipocyte clusters (existing scars [2]; vs PBS treated scars): enriched interactions mediated by adipocyte cluster 2 | ECM ultrastructure [3]: indistinguishable from that of unwounded xenograft skin
